# Laboratory results: US4122184A, “Benzimidazole insecticides” (priority 1977, dated 1978)
# Read-outs that look alike come from different tables or passages of the source.
# Tests used:
# Asparagus Beetles Larvae = assay: Field trial, contact poison test; format: in vivo
# Outline: (§1)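 Read-out: mortality rating 0–9 (0 = 0-10 percent, 9 = 91-100 percent) at 24/48/72 h, averaged per concentration. Insects were sprayed on potted-in-water host plants using an atomizer at 10 psi, with dead insects caught on paper below.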
# Corn Earworm = assay: Field trial, contact poison test; format: in vivo
# Outline: as §1
# Fall Webworm = assay: Field trial, contact poison test; format: in vivo
# Outline: as §1
# Imported Cabbage Worm = assay: Field trial, contact poison test; format: in vivo
# Outline: as §1
# Cabbage Looper = assay: Field trial (first summer), stomach; format: in vivo; conditions: 500 ppm
# Variegated Cutworm = assay: Field trial (first summer), stomach; format: in vivo; conditions: 500 ppm
# Acute oral toxicity = conditions: in vivo, read-out: Est. LD50
# Text: While the compounds of this invention resemble the organic phosphates in being toxic upon ingestion, they differ from the organic phosphates in having a low toxicity when applied to the skin. The following charts give the estimated acute oral and acute dermal toxicities of 2,6-bis(trifluoromethyl)-4-nitrobenzimidazole in several species of mammals.
smiles,measurement,setting,value
"O=[N+]([O-])c1cc(C(F)(F)F)cc2nc(C(F)(F)F)[nH]c12 [A, 2,6-bis(trifluoromethyl)-4-nitrobenzimidazole]",average mortality rating,Asparagus Beetles Larvae; 10 ppm,8
same,average mortality rating,Asparagus Beetles Larvae; 25 ppm,8
same,average mortality rating,Asparagus Beetles Larvae; 50 ppm,9 (91-100 percent mortality)
same,average mortality rating,Corn Earworm; 62.5 ppm,0 (0-10 percent)
same,average mortality rating,Corn Earworm; 125 ppm,0 (0-10 percent)
same,average mortality rating,Corn Earworm; 250 ppm,0 (0-10 percent)
same,average mortality rating,Corn Earworm; 500 ppm,0 (0-10 percent)
same,average mortality rating,Corn Earworm; 750 ppm,1
same,average mortality rating,Fall Webworm; 125 ppm,3
same,average mortality rating,Fall Webworm; 250 ppm,5
same,average mortality rating,Fall Webworm; 500 ppm,3
same,average mortality rating,Fall Webworm; 750 ppm,9 (91-100 percent mortality)
same,average mortality rating,Imported Cabbage Worm; 125 ppm,3
same,average mortality rating,Imported Cabbage Worm; 250 ppm,4
same,average mortality rating,Imported Cabbage Worm; 500 ppm,3
same,average mortality rating,Imported Cabbage Worm; 750 ppm,7
same,insect mortality rating,Cabbage Looper,9 (91-100 percent mortality)
same,insect mortality rating,Variegated Cutworm,5
same,LD50,"Acute oral toxicity; guinea pig, male",15 mg/kg
same,LD50,"Acute oral toxicity; mouse, female",27 mg/kg
same,LD50,"Acute oral toxicity; rat, female",19 to 22 mg/kg
same,LD50,"Acute oral toxicity; rat, male",16 to 20 mg/kg
